Literature values in EP4781989A1, “POSACONAZOLE SOLID DISPERSION AND PREPARATION METHOD THEREFOR” (BEIJING DELIVERY PHARMACEUTICAL TECHNOLOGY CO., LTD, priority 2023, dated 2024).
Where two headings read alike, the source gives them in different places.

For CC[C@@H]([C@H](C)O)n1ncn(-c2ccc(N3CCN(c4ccc(OC[C@@H]5CO[C@@](Cn6cncn6)(c6ccc(F)cc6F)C5)cc4)CC3)cc2)c1=O [Posaconazole], the solubility (at about pH 6.4 or higher) is given as “less than 1 µg/mL” and the solubility (gastric environment with about pH 1) is given as “about 0.8 mg/mL”.
